Measured values reported in patent US20190216761A1, “COMPOSITIONS COMPRISING 15-HEPE AND METHODS OF USING THE SAME” (Afimmune Limited, priority 2015, published 2019).
Changes are numbered by the printed parent chain. Marks after values point to notes of the source that are not given here.

Columns and labels:
hPPARγ [1] = biological target: T1, hPPARγ (Homo sapiens, UniProt P37231); assay: PPAR agonist reporter assay (Gal4 hybrid receptor, luciferase); format: cell-based
T1 construct: expressed in transfected cells
T1 sequence (P37231 238-503 limits assumed): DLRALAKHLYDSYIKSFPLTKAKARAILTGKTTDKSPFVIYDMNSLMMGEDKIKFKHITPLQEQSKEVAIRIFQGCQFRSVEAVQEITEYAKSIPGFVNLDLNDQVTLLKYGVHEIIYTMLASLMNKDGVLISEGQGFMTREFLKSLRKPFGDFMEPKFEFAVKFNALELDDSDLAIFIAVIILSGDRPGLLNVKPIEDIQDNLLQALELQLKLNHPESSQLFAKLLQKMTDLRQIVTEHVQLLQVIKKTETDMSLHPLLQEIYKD
Protocol: (§1) This study utilized proprietary reporter cells expressing a hybrid receptor comprising the N-terminal Gal4 DNA binding domain fused to the ligand binding domain of the specific human nuclear receptor (hPPARα, hPPARδ, and hPPARγ) and rat nuclear receptor (rPPARα, rPPARδ, and rPPARγ). The reporter vectors used in this Example comprise the firefly luciferase gene functionally linked to the Gal4 upstream activation sequence.
(§2) Nuclear Receptor assay was performed by dispensing 100 μL of a suspension of Reporter Cells in Cell Recovery Medium (CRM) containing 10% charcoal stripped FBS into each well of a white 96-well plate. Test compounds were diluted using compound screening medium (CSM) containing 10% charcoal stripped FBS to generate “2×-concentration” treatment media. Immediately after this dilution step, 100 μL of each diluted 2×-concentration treatment medium was dispensed (in triplicate) into the Reporter Cell-containing assay wells.
(§3) After incubation at 37° C. for 24 hours, the treatment media was discarded. 100 μL of Luciferase Detection Reagent substrate was added to each well and RLUs were quantified from each well to determine nuclear receptor activities.

hPPARδ = biological target: T2, hPPARδ (Homo sapiens, UniProt Q03181); assay: as above; format: cell-based
T2 construct: expressed in transfected cells
T2 sequence (Q03181 211-439 limits assumed): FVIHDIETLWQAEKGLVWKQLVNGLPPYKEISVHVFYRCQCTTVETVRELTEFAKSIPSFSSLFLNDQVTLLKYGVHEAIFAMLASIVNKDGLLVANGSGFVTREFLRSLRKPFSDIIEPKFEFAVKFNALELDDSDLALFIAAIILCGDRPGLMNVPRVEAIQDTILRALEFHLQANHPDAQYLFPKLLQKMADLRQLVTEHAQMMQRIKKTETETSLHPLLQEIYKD
Protocol: as §1, §2, §3

rPPARα = biological target: T3, rPPARα (Rattus norvegicus, UniProt P37230); assay: as above; format: cell-based
T3 construct: expressed in transfected cells
T3 sequence (P37230 239-466 limits assumed): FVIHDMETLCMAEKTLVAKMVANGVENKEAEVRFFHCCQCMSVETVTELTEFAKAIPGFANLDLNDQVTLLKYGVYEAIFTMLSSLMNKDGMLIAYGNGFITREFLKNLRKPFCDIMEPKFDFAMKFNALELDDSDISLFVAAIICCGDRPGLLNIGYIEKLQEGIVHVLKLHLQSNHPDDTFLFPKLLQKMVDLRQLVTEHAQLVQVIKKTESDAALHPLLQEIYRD
Protocol: as §1, §2, §3

rPPARγ [2] = biological target: T4, rPPARγ (Rattus norvegicus, UniProt O88275); assay: as above; format: cell-based
T4 construct: expressed in transfected cells
T4 sequence (O88275 238-503 limits assumed): T1 sequence (P37231 238-503 limits assumed) with S93N, V98I, L226V, Q245H
Protocol: as §1, §2, §3

rPPARδ = assay: as above; format: cell-based, rat
Protocol: as §1, §2, §3

hPPARγ [3] = biological target: T1, hPPARγ; assay: PPAR antagonist reporter assay (reference agonist at EC80); format: cell-based
Protocol: as §1
(§4) Nuclear Receptor assay was performed by suspending Reporter Cells in CRM containing 10% charcoal stripped FBS. 2×-EC80 concentrations of the appropriate reference agonist were then added to the Reporter Cell suspension, and 100 μL of the mixture dispensed into wells of a white 96-well plate. Test compounds were diluted using compound screening medium (CSM) containing 10% charcoal stripped FBS to generate “2×-concentration” treatment media. Immediately after this dilution step, 100 μL of each diluted 2×-concentration treatment medium was dispensed (in triplicate) into the Reporter Cell-containing assay wells.
(§5) After incubation at 37° C. for 24 hours, the treatment media was discarded. Each well was rinsed once with LCM Buffer; LCM substrate was then added. After incubation for 30 minutes at 37° C., fluorescence was measured to determine the relative number of live cells per assay well. LCM substrate was then discarded and 100 μL of Luciferase Detection Reagent substrate was added to each well. RLUs were quantified from each well to determine nuclear receptor activities.

rPPARγ [4] = biological target: T4, rPPARγ; assay: as above; format: cell-based
Protocol: as §1, §4, §5

Which results are given for CC/C=C\C/C=C\C/C=C\C/C=C\C/C=C\CCCC(=O)OCC [EPA-EE, EPA ethyl ester, reference compound]?
Fold-Activation (vs. 0.10% DMSO) hPPAR-γ (hPPARγ [1]; 137 nM): 0.90 fold; Fold-Activation (vs. 0.10% DMSO) hPPAR-γ (hPPARγ [1]; 412 nM): 0.94 fold; Fold-Activation (vs. 0.10% DMSO) hPPAR-γ (hPPARγ [1]; 1,235 nM): 0.94 fold; Fold-Activation (vs. 0.10% DMSO) hPPAR-γ (hPPARγ [1]; 3,704 nM): 0.88 fold; Fold-Activation (vs. 0.10% DMSO) hPPAR-γ (hPPARγ [1]; 11,111 nM): 1.0 fold; Fold-Activation (vs. 0.10% DMSO) hPPAR-γ (hPPARγ [1]; 33,333 nM): 0.78 fold; Fold-Activation (vs. 0.10% DMSO) hPPAR-γ (hPPARγ [1]; 100,000 nM): 1.2 fold; Fold-Activation (vs. 0.10% DMSO) hPPAR-γ (hPPARγ [1]; 300,000 nM): 2.8* fold; Fold-Activation (vs. 0.10% DMSO) hPPAR-δ (hPPARδ; 137 nM): 1.2 fold; Fold-Activation (vs. 0.10% DMSO) hPPAR-δ (hPPARδ; 412 nM): 1.2 fold; Fold-Activation (vs. 0.10% DMSO) hPPAR-δ (hPPARδ; 1,235 nM): 1.3 fold; Fold-Activation (vs. 0.10% DMSO) hPPAR-δ (hPPARδ; 3,704 nM): 1.5 fold; Fold-Activation (vs. 0.10% DMSO) hPPAR-δ (hPPARδ; 11,111 nM): 1.4 fold; Fold-Activation (vs. 0.10% DMSO) hPPAR-δ (hPPARδ; 33,333 nM): 1.8 fold; Fold-Activation (vs. 0.10% DMSO) hPPAR-δ (hPPARδ; 100,000 nM): 2.6* fold; Fold-Activation (vs. 0.10% DMSO) hPPAR-δ (hPPARδ; 300,000 nM): 3.8* fold; Fold-Activation (vs. 0.10% DMSO) rPPAR-α (rPPARα; 137 nM): 1.3 fold; Fold-Activation (vs. 0.10% DMSO) rPPAR-α (rPPARα; 412 nM): 1.3 fold; Fold-Activation (vs. 0.10% DMSO) rPPAR-α (rPPARα; 1,235 nM): 1.3 fold; Fold-Activation (vs. 0.10% DMSO) rPPAR-α (rPPARα; 3,704 nM): 1.3 fold; Fold-Activation (vs. 0.10% DMSO) rPPAR-α (rPPARα; 11,111 nM): 1.4 fold; Fold-Activation (vs. 0.10% DMSO) rPPAR-α (rPPARα; 33,333 nM): 1.3 fold; Fold-Activation (vs. 0.10% DMSO) rPPAR-α (rPPARα; 100,000 nM): 1.3 fold; Fold-Activation (vs. 0.10% DMSO) rPPAR-α (rPPARα; 300,000 nM): 1.5 fold; Fold-Activation (vs. 0.10% DMSO) rPPAR-γ (rPPARγ [2]; 137 nM): 0.90 fold; Fold-Activation (vs. 0.10% DMSO) rPPAR-γ (rPPARγ [2]; 412 nM): 0.94 fold; Fold-Activation (vs. 0.10% DMSO) rPPAR-γ (rPPARγ [2]; 1,235 nM): 0.99 fold; Fold-Activation (vs. 0.10% DMSO) rPPAR-γ (rPPARγ [2]; 3,704 nM): 0.97 fold; Fold-Activation (vs. 0.10% DMSO) rPPAR-γ (rPPARγ [2]; 11,111 nM): 0.97 fold; Fold-Activation (vs. 0.10% DMSO) rPPAR-γ (rPPARγ [2]; 33,333 nM): 0.99 fold; Fold-Activation (vs. 0.10% DMSO) rPPAR-γ (rPPARγ [2]; 100,000 nM): 1.0 fold; Fold-Activation (vs. 0.10% DMSO) rPPAR-γ (rPPARγ [2]; 300,000 nM): 2.1* fold; Fold-Activation (vs. 0.10% DMSO) rPPAR-δ (rPPARδ; 137 nM): 1.3 fold; Fold-Activation (vs. 0.10% DMSO) rPPAR-δ (rPPARδ; 412 nM): 1.3 fold; Fold-Activation (vs. 0.10% DMSO) rPPAR-δ (rPPARδ; 1,235 nM): 1.2 fold; Fold-Activation (vs. 0.10% DMSO) rPPAR-δ (rPPARδ; 3,704 nM): 1.5 fold; Fold-Activation (vs. 0.10% DMSO) rPPAR-δ (rPPARδ; 11,111 nM): 1.4 fold; Fold-Activation (vs. 0.10% DMSO) rPPAR-δ (rPPARδ; 33,333 nM): 1.5 fold; Fold-Activation (vs. 0.10% DMSO) rPPAR-δ (rPPARδ; 100,000 nM): 2.0 fold; Fold-Activation (vs. 0.10% DMSO) rPPAR-δ (rPPARδ; 300,000 nM): 3.6* fold; % Inhibition of agonist-stimulated receptor activity vs. 0.10% DMSO, hPPAR-γ (hPPARγ [3]; 137 nM): 13%; % Inhibition of agonist-stimulated receptor activity vs. 0.10% DMSO, hPPAR-γ (hPPARγ [3]; 412 nM): 3.8%; % Inhibition of agonist-stimulated receptor activity vs. 0.10% DMSO, hPPAR-γ (hPPARγ [3]; 1,235 nM): −8.0%; % Inhibition of agonist-stimulated receptor activity vs. 0.10% DMSO, hPPAR-γ (hPPARγ [3]; 3,704 nM): −11%; % Inhibition of agonist-stimulated receptor activity vs. 0.10% DMSO, hPPAR-γ (hPPARγ [3]; 11,111 nM): −8.4%; % Inhibition of agonist-stimulated receptor activity vs. 0.10% DMSO, hPPAR-γ (hPPARγ [3]; 33,333 nM): 2.9%; % Inhibition of agonist-stimulated receptor activity vs. 0.10% DMSO, hPPAR-γ (hPPARγ [3]; 100,000 nM): −0.59%; % Inhibition of agonist-stimulated receptor activity vs. 0.10% DMSO, hPPAR-γ (hPPARγ [3]; 300,000 nM): 30%; inhibition of human PPARs (in words), hPPARγ (hPPARγ [3]; at higher test concentrations): does not exhibit similar inhibitory activity; % Inhibition of agonist-stimulated receptor activity vs. 0.10% DMSO, rPPAR-γ (rPPARγ [4]; 137 nM): 9.6%; % Inhibition of agonist-stimulated receptor activity vs. 0.10% DMSO, rPPAR-γ (rPPARγ [4]; 412 nM): −7.4%; % Inhibition of agonist-stimulated receptor activity vs. 0.10% DMSO, rPPAR-γ (rPPARγ [4]; 1,235 nM): −7.3%; % Inhibition of agonist-stimulated receptor activity vs. 0.10% DMSO, rPPAR-γ (rPPARγ [4]; 3,704 nM): −0.55%; % Inhibition of agonist-stimulated receptor activity vs. 0.10% DMSO, rPPAR-γ (rPPARγ [4]; 11,111 nM): 2.8%; % Inhibition of agonist-stimulated receptor activity vs. 0.10% DMSO, rPPAR-γ (rPPARγ [4]; 33,333 nM): 5.0%; % Inhibition of agonist-stimulated receptor activity vs. 0.10% DMSO, rPPAR-γ (rPPARγ [4]; 100,000 nM): 6.2%; % Inhibition of agonist-stimulated receptor activity vs. 0.10% DMSO, rPPAR-γ (rPPARγ [4]; 300,000 nM): 7.0%; inhibition of rat PPARs (in words), rPPARγ (rPPARγ [4]; at higher test concentrations): does not exhibit similar inhibitory activity
